The source of these data is patent US20260242359A1, “IRHOM2 INHIBITORS AND USES THEREOF” (NEW YORK SOCIETY FOR THE RELIEF OF THE RUPTURED AND …, priority 2023, published 2026).

In the assay the test system is PMA-induced release of endogenous IL-6R from human peripheral blood mononuclear cells (PBMCs). Put plainly: Example 14: ELISA-based IL-6R release assay, PMA-induced, PBMCs from healthy donor. It counts as cell-based. To be noted: 10 μM final concentration, PMA 25 ng/ml, delta Buffer stimulated vs unstimulated = 100% inhibition; for inhibition at 10 µM: Homo sapiens, PBMC. The protocol: In the following study, ELISA-based IL-6R release assays were performed to analyze the inhibitory effects of Compounds 1, 2, 3, 4, 5, and 7 on PMA-induced release of endogenous IL-6R from primary human material obtained from healthy donor using peripheral blood mononuclear cells (PBMCs). The ELISA-based IL-6R release assay that was used in this example is described below.
In brief, on day 1, Nunc black MaxiSorp® 96-well plates (Thermo Fisher Scientific, USA) were coated overnight with […] per well of mouse anti-human IL-6R capture antibody (provided as part of the DuoSet ELISA kit) at 2 μg/ml TBS at 4° C.
40,000 PBMCs from healthy donor (SciRhom GmbH, Germany) in 80 μl of normal growth medium were seeded in each well of Greiner CELLSTAR V-bottom 96-well plates (Greiner Bio-One, Germany) and pre-incubated with 20 μl per well of standard growth medium supplemented with Batimastat (BB94, Abcam, UK) at 50 μM as positive control (for a final concentration of 10 μM in the resulting 100 μl sample volume), compounds of the invention at 50 μM (for a final concentration of 10 μM in the resulting 100 μl sample volume) and in case of Buffer stimulated and unstimulated controls with DMSO (Carl Roth, Germany) at 50 μM (for a final concentration of 10 μM in the resulting 100 μl sample volume) at 37° C., 5% CO2 for 30 minutes. Subsequently, cells (except those for unstimulated controls) were stimulated with 20 μl per well of PMA (Sigma-Aldrich, USA) at 150 ng/ml in growth medium for a final concentration of 25 ng/ml at 37° C., 5% CO2 for 22 hours.
On day 2, the capture antibody solution was removed and MaxiSorp® plates were blocked with 300 μl per well of TBS, 1% BSA at room temperature for 2-3 hours. Meanwhile, the 96-well plates were centrifuged to pellet cells. In parallel, blocking buffer was removed from the MaxiSorp® plates and plates were washed 4 times with 350 μl TBS-T (Carl Roth, Germany) per well on a 96-head plate washer (Tecan Group, Switzerland). To avoid drying-up, 30 μl TBS were added to each well of the MaxiSorp® plates immediately, followed by the transfer of 70 μl cell-free supernatant per sample. Additionally, 100 μl recombinant human IL-6R protein (provided as part of the DuoSet ELISA kit) diluted in TBS at defined concentrations were added to the plate as standard references. Plates were incubated at room temperature for 2 hours. After 4 times washing with 350 μl TBS-T (Carl Roth, Germany) per well on a 96-head plate washer (Tecan Group, Switzerland) and careful removal of all buffer traces after the fourth cycle, 100 μl biotinylated goat anti-human IL-6R detection antibody (provided as part of the DuoSet ELISA kit) at 100 ng/ml TBS were added per well and, protected from direct light, plates were incubated at room temperature for 2 hours. After 4 times washing with 350 μl TBS-T (Carl Roth, Germany) per well on a 96-head plate washer (Tecan Group, Switzerland) and careful removal of all buffer traces after the fourth cycle, 100 μl streptavidin-AP (R&D Systems, USA) diluted 1:10,000 in TBS were added to each well and, again protected from direct light, plates were incubated at room temperature for 30 minutes. Following another round of 4 times washing with 350 μl TBS-T (Carl Roth, Germany) per well on a 96-head plate washer (Tecan Group, Switzerland) and careful removal of all buffer traces after the fourth cycle, 100 μl AttoPhos substrate solution (Promega, USA) per well was added for incubation in the dark at room temperature for 1 hour. Using an infinite M1000 (Tecan Group, Switzerland) microplate reader, the fluorescence of each well was collected at an excitation wavelength of 435 nm and an emission wavelength of 555 nm.
The delta between Buffer stimulated and Buffer unstimulated was defined 100% inhibition.

As to `CNC(=O)[C@H](Cc1ccccc1)NC(=O)[C@H](CC(C)C)[C@H](CSc1cccs1)C(=O)NO` [Batimastat, reference compound], the “inhibition of PMA-induced release of IL-6R from PBMCs from healthy donor” value (22 hours) was determined as 98.5%. The inhibition at 10 µM (22 h) was 100%.

`CCC(=O)NCCc1c(/C=C2/C(=O)NC(=O)N(c3ccc(C)cc3C)C2=O)[nH]c2ccccc12` [Compound 1]: the inhibition at 10 µM (22 hours) amounted to 112%.

With `CCOC(=O)c1ccc(Nc2nc3nonc3n3nnnc23)cc1` [Compound 2], under “22 h”, the inhibition at 10 µM was 111%.

Turning to `O=C(c1c(Cl)cccc1Cl)N1CCC(Cc2ccc(F)cc2)CC1` [Compound 3], the inhibition at 10 µM (22 h) turned out to be 0%.

`Cc1c(C(=O)NCc2cccs2)sc(=O)n1Cc1ccccc1` [Compound 4]: the inhibition at 10 µM (22 h) was 6.2%.

For `Cc1c(C(=O)NCc2cccs2)sc(=O)n1Cc1ccccc1F` [Compound 5], the inhibition at 10 µM (22 h) was 6.5%.

As to `Cc1c(C(=O)NCc2ccco2)sc(=O)n1Cc1ccccc1F` [Compound 7], under “22 h”, the inhibition at 10 µM is 59.1%.
